Results: ChEMBL document CHEMBL1201862, “PubChem BioAssay data set” (2004)
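Where inhibition never reached the appropriate level, the endpoint shown equals the highest concentration tested. Otherwise, values were interpolated linearly from a five-concentration, 48-hour dose response in 96-well plates. Here, GI50 denotes the concentration required for 50% inhibition of growth.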 Active and inactive are the calls of the source. Rule as the data show it: active = GI50 up to about 1.1 µM and inactive = higher.

Legend:
Assay in all cases: NCI anticancer screen, dose series, 48 h
MDA-MB-435 = tested on: MDA-MB-435
MDA-N = tested on: MDA-N
EKVX = tested on: EKVX
COLO 205 = tested on: COLO 205
UO-31 = tested on: UO-31
TK-10 = tested on: TK-10
OVCAR-3 = tested on: OVCAR-3
SW-620 = tested on: SW-620
UACC-257 = tested on: UACC-257
RXF 393 = tested on: RXF 393
HCT-15 = tested on: HCT-15
SK-MEL-2 = tested on: SK-MEL-2
RPMI-8226 = tested on: RPMI-8226
NCI/ADR-RES = tested on: NCI/ADR-RES
MCF7 = tested on: MCF7
786-0 = tested on: 786-0
NCI-H226 = tested on: NCI-H226
SNB-19 = tested on: SNB-19
OVCAR-5 = tested on: OVCAR-5
SK-MEL-5 = tested on: SK-MEL-5
KM12 = tested on: KM12
SNB-75 = tested on: SNB-75
U-251 = tested on: U-251
NCI-H460 = tested on: NCI-H460
PC-3 = tested on: PC-3
Hs-578T = tested on: Hs-578T
HCC 2998 = tested on: HCC 2998
BT-549 = tested on: BT-549
ACHN = tested on: ACHN
SK-OV-3 = tested on: SK-OV-3
M14 = tested on: M14
HT-29 = tested on: HT-29
HL-60 = tested on: HL-60
MOLT-4 = tested on: MOLT-4
HCT-116 = tested on: HCT-116
SF-268 = tested on: SF-268
LOX IMVI = tested on: LOX IMVI
A498 = tested on: A498
CAKI-1 = tested on: CAKI-1
SN12C = tested on: SN12C
CCRF-CEM = tested on: CCRF-CEM
SR = tested on: SR
K562 = tested on: K562
OVCAR-4 = tested on: OVCAR-4
SK-MEL-28 = tested on: SK-MEL-28
HOP-92 = tested on: HOP-92
MDA-MB-231 = tested on: MDA-MB-231
IGROV-1 = tested on: IGROV-1
SF-539 = tested on: SF-539
A549 = tested on: A549
SF-295 = tested on: SF-295
HOP-62 = tested on: HOP-62
UACC-62 = tested on: UACC-62
T47D = tested on: T47D
NCI-H522 = tested on: NCI-H522
Malme-3M = tested on: Malme-3M
DU-145 = tested on: DU-145
OVCAR-8 = tested on: OVCAR-8
NCI-H23 = tested on: NCI-H23

Compound: CSC1=NC(=O)CCN1C1OCC(OC(C)=O)C(OC(C)=O)C1OC(C)=O (configuration not stated)
- GI50 (MDA-MB-435): 17.9 µM (inactive)
- GI50 (MDA-N): > 10 µM (inactive)
- GI50 (EKVX): 20.1 µM (inactive)
- GI50 (COLO 205): 23.9 µM (inactive)
- GI50 (UO-31): 19.3 µM (inactive)
- GI50 (TK-10): 17.1 µM (inactive)
- GI50 (OVCAR-3): 12.6 µM (inactive)
- GI50 (SW-620): 18.3 µM (inactive)
- GI50 (UACC-257): 18.4 µM (inactive)
- GI50 (RXF 393): 15.8 µM (inactive)
- GI50 (HCT-15): 18.5 µM
- GI50 (SK-MEL-2): 13.6 µM (inactive)
- GI50 (RPMI-8226): 6.9 µM (inactive)
- GI50 (NCI/ADR-RES): 15.8 µM (inactive)
- GI50 (MCF7): 63.8 µM (inactive)
- GI50 (786-0): 16.3 µM (inactive)
- GI50 (NCI-H226): 18.7 µM (inactive)
- GI50 (SNB-19): 16.3 µM (inactive)
- GI50 (OVCAR-5): 19.6 µM (inactive)
- GI50 (SK-MEL-5): 10.9 µM (inactive)
- GI50 (KM12): 21.5 µM (inactive)
- GI50 (SNB-75): 14.7 µM (inactive)
- GI50 (U-251): 15.8 µM (inactive)
- GI50 (NCI-H460): 10.4 µM (inactive)
- GI50 (PC-3): 15 µM (inactive)
- GI50 (Hs-578T): 12.6 µM (inactive)
- GI50 (HCC 2998): 21.8 µM (inactive)
- GI50 (BT-549): 15.1 µM (inactive)
- GI50 (ACHN): 17 µM (inactive)
- GI50 (SK-OV-3): 15.2 µM (inactive)
- GI50 (M14): > 10 µM (inactive)
- GI50 (HT-29): 17.9 µM (inactive)
- GI50 (HL-60): 2.99 µM (inactive)
- GI50 (MOLT-4): 4.66 µM (inactive)
- GI50 (HCT-116): 5.45 µM (inactive)
- GI50 (SF-268): 16.9 µM (inactive)
- GI50 (LOX IMVI): > 10 µM (inactive)
- GI50 (A498): 15.6 µM (inactive)
- GI50 (CAKI-1): 24.7 µM (inactive)
- GI50 (SN12C): 20.7 µM (inactive)
- GI50 (CCRF-CEM): 5.9 µM (inactive)
- GI50 (SR): 4.51 µM (inactive)
- GI50 (K562): 3.65 µM (inactive)
- GI50 (OVCAR-4): 19.2 µM (inactive)
- GI50 (SK-MEL-28): 16.1 µM (inactive)
- GI50 (HOP-92): 14.8 µM (inactive)
- GI50 (MDA-MB-231): 12.4 µM (inactive)
- GI50 (IGROV-1): 15.1 µM (inactive)
- GI50 (SF-539): 12.1 µM (inactive)
- GI50 (A549): 18.6 µM (inactive)
- GI50 (SF-295): 20.1 µM (inactive)
- GI50 (HOP-62): 18.7 µM (inactive)
- GI50 (UACC-62): 40.6 µM (inactive)
- GI50 (T47D): 16.8 µM (inactive)
- GI50 (NCI-H522): 18.2 µM (inactive)
- GI50 (Malme-3M): 14.3 µM (inactive)
- GI50 (DU-145): 19.9 µM (inactive)
- GI50 (OVCAR-8): 15.8 µM (inactive)
- GI50 (NCI-H23): 20.8 µM (inactive)

Compound: N#CC(c1ccccc1)N1CCCN(C(C#N)c2ccccc2)C1c1ccccc1O (configuration not stated)
- GI50 (MDA-MB-435): > 100 µM (inactive)
- GI50 (MDA-N): > 100 µM (inactive)
- GI50 (EKVX): > 100 µM (inactive)
- GI50 (COLO 205): > 100 µM (inactive)
- GI50 (UO-31): > 100 µM (inactive)
- GI50 (TK-10): > 100 µM (inactive)
- GI50 (OVCAR-3): 48.3 µM (inactive)
- GI50 (SW-620): > 100 µM (inactive)
- GI50 (UACC-257): > 100 µM (inactive)
- GI50 (RXF 393): > 100 µM (inactive)
- GI50 (HCT-15): > 100 µM
- GI50 (SK-MEL-2): > 100 µM (inactive)
- GI50 (RPMI-8226): 60.5 µM (inactive)
- GI50 (NCI/ADR-RES): > 100 µM (inactive)
- GI50 (MCF7): > 100 µM (inactive)
- GI50 (786-0): > 100 µM (inactive)
- GI50 (NCI-H226): > 100 µM (inactive)
- GI50 (SNB-19): > 100 µM (inactive)
- GI50 (OVCAR-5): > 100 µM (inactive)
- GI50 (SK-MEL-5): > 100 µM (inactive)
- GI50 (KM12): > 100 µM (inactive)
- GI50 (SNB-75): > 100 µM (inactive)
- GI50 (U-251): > 100 µM (inactive)
- GI50 (NCI-H460): > 100 µM (inactive)
- GI50 (PC-3): > 100 µM (inactive)
- GI50 (Hs-578T): > 100 µM (inactive)
- GI50 (HCC 2998): > 100 µM (inactive)
- GI50 (BT-549): > 100 µM (inactive)
- GI50 (ACHN): > 100 µM (inactive)
- GI50 (SK-OV-3): > 100 µM (inactive)
- GI50 (M14): > 100 µM (inactive)
- GI50 (HT-29): 55.8 µM (inactive)
- GI50 (HL-60): 0.0362 µM (active)
- GI50 (MOLT-4): 61.1 µM (inactive)
- GI50 (HCT-116): 93.5 µM (inactive)
- GI50 (SF-268): > 100 µM (inactive)
- GI50 (LOX IMVI): > 100 µM (inactive)
- GI50 (A498): > 100 µM (inactive)
- GI50 (CAKI-1): > 100 µM (inactive)
- GI50 (SN12C): > 100 µM (inactive)
- GI50 (CCRF-CEM): 40.1 µM (inactive)
- GI50 (SR): > 100 µM (inactive)
- GI50 (K562): > 100 µM (inactive)
- GI50 (OVCAR-4): > 100 µM (inactive)
- GI50 (SK-MEL-28): > 100 µM (inactive)
- GI50 (HOP-92): 22.7 µM (inactive)
- GI50 (MDA-MB-231): > 100 µM (inactive)
- GI50 (IGROV-1): > 100 µM (inactive)
- GI50 (SF-539): 52.1 µM (inactive)
- GI50 (A549): > 100 µM (inactive)
- GI50 (SF-295): > 100 µM (inactive)
- GI50 (HOP-62): > 100 µM (inactive)
- GI50 (UACC-62): > 100 µM (inactive)
- GI50 (T47D): > 100 µM (inactive)
- GI50 (NCI-H522): > 100 µM (inactive)
- GI50 (Malme-3M): > 100 µM (inactive)
- GI50 (DU-145): > 100 µM (inactive)
- GI50 (OVCAR-8): > 100 µM (inactive)
- GI50 (NCI-H23): > 100 µM (inactive)

Compound: CC[C@]1(O)CC(OC2CC(N(C)C)C(O)C(C)O2)c2c(cc3c(c2O)C(=O)c2c(O)cccc2C3=O)[C@@H]1C(=O)OC (some centres not stated)
- GI50 (MDA-MB-435): 0.291 µM (active)
- GI50 (MDA-N): 0.384 µM (active)
- GI50 (EKVX): 0.493 µM (active)
- GI50 (COLO 205): 0.0881 µM (active)
- GI50 (UO-31): 0.173 µM (active)
- GI50 (TK-10): 0.472 µM (active)
- GI50 (OVCAR-3): 0.493 µM (active)
- GI50 (SW-620): 0.0392 µM (active)
- GI50 (UACC-257): 0.347 µM (active)
- GI50 (RXF 393): 0.269 µM (active)
- GI50 (HCT-15): 0.244 µM
- GI50 (SK-MEL-2): 0.381 µM (active)
- GI50 (RPMI-8226): 0.125 µM (active)
- GI50 (NCI/ADR-RES): 0.269 µM (active)
- GI50 (MCF7): 0.292 µM (active)
- GI50 (786-0): 0.205 µM (active)
- GI50 (NCI-H226): 0.243 µM (active)
- GI50 (SNB-19): 0.328 µM (active)
- GI50 (OVCAR-5): 0.718 µM (active)
- GI50 (SK-MEL-5): 0.192 µM (active)
- GI50 (KM12): 0.225 µM (active)
- GI50 (SNB-75): 0.201 µM (active)
- GI50 (U-251): 0.151 µM (active)
- GI50 (NCI-H460): 0.045 µM (active)
- GI50 (PC-3): 0.214 µM (active)
- GI50 (Hs-578T): 0.745 µM (active)
- GI50 (HCC 2998): 0.21 µM (active)
- GI50 (BT-549): 1.16 µM (inactive)
- GI50 (ACHN): 0.0537 µM (active)
- GI50 (SK-OV-3): 0.333 µM (active)
- GI50 (M14): 0.468 µM (active)
- GI50 (HT-29): 0.107 µM (active)
- GI50 (HL-60): 0.249 µM (active)
- GI50 (MOLT-4): 0.0405 µM (active)
- GI50 (HCT-116): 0.0455 µM (active)
- GI50 (SF-268): 0.12 µM (active)
- GI50 (LOX IMVI): 0.0859 µM (active)
- GI50 (A498): 0.232 µM (active)
- GI50 (CAKI-1): 0.0466 µM (active)
- GI50 (SN12C): 0.178 µM (active)
- GI50 (CCRF-CEM): 0.117 µM (active)
- GI50 (SR): 0.0538 µM (active)
- GI50 (K562): 0.0733 µM (active)
- GI50 (OVCAR-4): 0.114 µM (active)
- GI50 (SK-MEL-28): 0.664 µM (active)
- GI50 (HOP-92): 0.22 µM (active)
- GI50 (MDA-MB-231): 0.351 µM (active)
- GI50 (IGROV-1): 0.119 µM (active)
- GI50 (SF-539): 0.59 µM (active)
- GI50 (A549): 0.136 µM (active)
- GI50 (SF-295): 0.195 µM (active)
- GI50 (HOP-62): 0.146 µM (active)
- GI50 (UACC-62): 0.196 µM (active)
- GI50 (T47D): 0.649 µM (active)
- GI50 (NCI-H522): 0.108 µM (active)
- GI50 (Malme-3M): 0.245 µM (active)
- GI50 (DU-145): 0.675 µM (active)
- GI50 (OVCAR-8): 0.0743 µM (active)
- GI50 (NCI-H23): 0.272 µM (active)
